Format in all cases: cell-based
Assay [1] relates to Staphylococcus aureus [DSM 346]. As to the kind of experiment: MIC, 96-well plate serial dilution assay.
In assay [2] the test system is Mycobacterium smegmatis [ATCC 700084]. As to the kind of experiment: MIC, 96-well plate serial dilution assay.
Assay [3] concerns Bacillus subtilis [DSM 10]. Briefly: MIC, 96-well plate serial dilution assay. As to conditions: for MIC: DSM10, concentration range 67 to 0.5 µg/mL.
For assay [4], the system named is Mucor hiemalis [DSM 2656]. Briefly: MIC, 96-well plate serial dilution assay.
Assay [5] concerns Candida albicans [DSM 1665]. Briefly: MIC, 96-well plate serial dilution assay.
Assay [6] has as its system Rhodotorula glutinis [DSM 10134]. Briefly: MIC, 96-well plate serial dilution assay.
In assay [7] the test system is human endocervical adenocarcinoma (KB3.1). As to the kind of experiment: In vitro cytotoxicity, MTT assay. Particulars: KB 3-1, KB3.1, MTT. The method, then: (§1) In vitro cytotoxicity studies (data expressed in the form of IC50 values) were performed over a concentration range between 1 and 37 µg/mL on a panel of seven cancer cell lines including human endocervical adenocarcinoma (KB3.1), mouse fibroblasts (L929), lung cancer (A549), squamous cancer (A431), prostate cancer (PC-3), breast cancer (MCF-7), and ovary cancer (SK-OV-3) using the MTT assay as previously reported.

A further assay relates to mouse fibroblasts (L929). As to the kind of experiment: In vitro cytotoxicity, MTT assay. Here is the method:
as §1

The test system of assay [8] is panel of seven cancer cell lines. As to the kind of experiment: In vitro cytotoxicity, MTT assay, whole panel. Particulars: for antiproliferative / anticancer activity (in words): panel of cancer cell lines; for pIC50: panel of seven different cancer cell lines, read-out: IC50 values, range over the panel. The method, then: as §1
Assay [9] relates to remaining strains (S. aureus, M. smegmatis, M. hiemalis, C. albicans, R. glutinis). Briefly: MIC serial dilution assay, strains other than Bacillus subtilis. Particulars: all tested strains except Bacillus subtilis.
The test system of another assay is breast cancer (MCF-7). As to the kind of experiment: In vitro cytotoxicity, MTT assay. As to conditions: Homo sapiens, MCF7. Here is the method:
as §1

A further assay concerns lung cancer (A549). As to the kind of experiment: In vitro cytotoxicity, MTT assay. Particulars: Homo sapiens. The method, then:
as §1

The test system of another assay is ovary cancer (SK-OV-3). As to the kind of experiment: In vitro cytotoxicity, MTT assay. As to conditions: Homo sapiens. The method, then:
as §1

Another assay relates to prostate cancer (PC-3). As to the kind of experiment: In vitro cytotoxicity, MTT assay. As to conditions: for sensitivity of PC-3 (in words): PC-3 (prostate cancer). Here is the method:
as §1

A further assay deals with squamous cancer (A431). As to the kind of experiment: In vitro cytotoxicity, MTT assay. As to conditions: Homo sapiens, A-431. Here is the method:
as §1

[10] abbreviates: DSM346, concentration range 67 to 0.5 µg/mL, read-out: MIC.
The mark [11] stands for this setting: Mycolicibacterium smegmatis, ATCC700084, concentration range 67 to 0.5 µg/mL, read-out: MIC.
Setting [12] is: DSM2656, concentration range 67 to 0.5 µg/mL, read-out: MIC.
[13] abbreviates: DSM1665, concentration range 67 to 0.5 µg/mL, read-out: MIC.
The mark [14] stands for this setting: DSM10134, concentration range 67 to 0.5 µg/mL, read-out: MIC.
Where [15] appears, read: concentration range 67 to 0.5 µg/mL.

pIC50: −log10 of the molar value. Converted amounts (≈) assume the structure as drawn. “Also recorded” adds a separate entry of the source. Read-outs that look alike come from different tables or passages of the source.

For the molecule `Cc1c2c(c3c(C)c(O)c(C(=O)O)c(O)c3c1O)COC2` [Compound 1, epicoccofuran A], the MIC in [1] (setting [10]) is above 67 µg/mL; in assay [2] (setting [11]) it was above 67 µg/mL; in [3] it was 33.3 µg/mL (≈ 115 µM); in [4] (setting [12]), above 67 µg/mL; in [5] (setting [13]) it was above 67 µg/mL; in [6] (setting [14]), above 67 µg/mL. Besides, the “antimicrobial activity against Bacillus subtilis (in words)” value in assay [3] is “moderate activity; also recorded: moderate antimicrobial activities”. Besides, in [3], the “potency against Bacillus relative to the standard oxytetracycline” value is given as “almost half”. Further, the pIC50 was 4.80 in assay [7] and 4.92 with mouse fibroblasts (L929). Further, the “antiproliferative / anticancer activity (in words)” value in assay [8] was “weak anticancer activity”. Besides, in assay [9], the “antimicrobial activity against the remaining strains (in words)” value is given as “no potential activity”.

Take `COC1OC(C2OCc3c(C)c(O)c(O)c(O)c32)c2c(O)c(O)c(O)c(C)c21` (stereo not shown) [Compound 2, flavimycin C]: the MIC in [1] (setting [10]) is above 67 µg/mL; in assay [2] (setting [11]), above 67 µg/mL; in [3] it was 33.3 µg/mL (≈ 84.9 µM); in assay [4] (setting [12]), above 67 µg/mL; in [5] (setting [13]), above 67 µg/mL; in [6] (setting [14]), above 67 µg/mL. In addition, the “antimicrobial activity against Bacillus subtilis (in words)” value in assay [3] is given as “moderate activity; also recorded: moderate antimicrobial activities”. Further, the “potency against Bacillus relative to the standard oxytetracycline” value in assay [3] is “almost half”. The pIC50 in the assay with breast cancer (MCF-7) (MCF-7, MTT, read-out: IC50) is 5.57; in assay [7], 5.11; in the assay on lung cancer (A549) (A549, MTT, read-out: IC50), 5.04; in the assay on mouse fibroblasts (L929) it was 5.17; with ovary cancer (SK-OV-3) (SKOV-3, MTT, read-out: IC50), 4.77; in the assay on prostate cancer (PC-3) (PC-3, MTT, read-out: IC50), below 4.00. In addition, the pIC50 in the assay on squamous cancer (A431) (A431, MTT, read-out: IC50) was 5.09; in [8] it was 4.92 to 5.89. Also, in the assay on prostate cancer (PC-3), the “sensitivity of PC-3 (in words)” value is recorded as “insensitive”. The “antiproliferative / anticancer activity (in words)” value in assay [8] is recorded as “highest potency; also recorded: promising anticancer activities”. The “antimicrobial activity against the remaining strains (in words)” value in assay [9] is recorded as “no potential activity”.

As for `Cc1c(O)c(O)c2c(c1C=O)[C@@H]1O[C@H](O2)c2c(C)c(O)c(O)c(O)c2C1=O` [Compound 3, epicocconigrone A], the MIC was above 67 µg/mL in [1] (setting [10]); above 67 µg/mL in assay [2] (setting [11]); 66.6 µg/mL (≈ 178 µM) in [3]; above 67 µg/mL in [4] (setting [12]); above 67 µg/mL in assay [5] (setting [13]); above 67 µg/mL in assay [6] (setting [14]). Also, the pIC50 in the assay with breast cancer (MCF-7) (MCF-7, MTT, read-out: IC50) is 5.62; in [7], 5.57; with lung cancer (A549) (A549, MTT, read-out: IC50) it was 5.00; in the assay on mouse fibroblasts (L929), 4.85; in the assay with ovary cancer (SK-OV-3) (SKOV-3, MTT, read-out: IC50) it was 4.92; in the assay with prostate cancer (PC-3) (PC-3, MTT, read-out: IC50), 5.10. In addition, the pIC50 in the assay with squamous cancer (A431) (A431, MTT, read-out: IC50) is 5.11; in [8], 4.92 to 5.89. Besides, the “antiproliferative / anticancer activity (in words)” value in assay [8] is given as “active against all tested cell lines; also recorded: promising anticancer activities”.

Regarding `Cc1c(O)c(O)c(O)c(C=O)c1-c1cc2c(C=O)c(C)c(O)c(O)c2o1` [Compound 4, epicoccolide B], the MIC in assay [1] (setting [10]) was above 67 µg/mL; in assay [2] (setting [11]) it was above 67 µg/mL; in assay [3], 66.6 µg/mL (≈ 186 µM); in [4] (setting [12]), above 67 µg/mL; in assay [5] (setting [13]) it was above 67 µg/mL; in assay [6] (setting [14]), above 67 µg/mL. Moreover, the pIC50 in assay [7] is 4.68; in the assay on mouse fibroblasts (L929), 4.72. Moreover, the “antiproliferative / anticancer activity (in words)” value in [8] is reported as “weak anticancer activity”.

As for `Cc1c(O)c(O)c(O)c2c1C(=O)OC2` [Compound 5, epicoccone], the MIC in assay [1] (setting [10]), in [2] (setting [11]), in [3], in assay [4] (setting [12]), in [5] (setting [13]) and in assay [6] (setting [14]) was above 67 µg/mL in each case. For the same molecule, the pIC50 in the assay with breast cancer (MCF-7) (MCF-7, MTT, read-out: IC50) was 5.42; in assay [7], 5.21; in the assay with lung cancer (A549) (A549, MTT, read-out: IC50), 5.17; in the assay on mouse fibroblasts (L929), 5.12; in the assay on ovary cancer (SK-OV-3) (SKOV-3, MTT, read-out: IC50), 5.09; in the assay on prostate cancer (PC-3) (PC-3, MTT, read-out: IC50), 5.10. The pIC50 with squamous cancer (A431) (A431, MTT, read-out: IC50) is 5.14; in [8] it was 4.92 to 5.89. For the same molecule, in [8], the “antiproliferative / anticancer activity (in words)” value was “active against all tested cell lines; also recorded: promising anticancer activities”.

As for `Cc1c(O)c(O)c(O)c2c1COC2` [Compound 6, 4,5,6-trihydroxy-7-methyl-1,3-dihydroisobenzofuran], the MIC in assay [1] (setting [10]), in assay [2] (setting [11]), in assay [3], in assay [4] (setting [12]), in assay [5] (setting [13]) and in assay [6] (setting [14]) was above 67 µg/mL throughout. Further, the pIC50 was 5.89 in the assay with breast cancer (MCF-7) (MCF-7, MTT, read-out: IC50); 5.47 in assay [7]; 5.20 with lung cancer (A549) (A549, MTT, read-out: IC50); 5.55 with mouse fibroblasts (L929); 5.11 with ovary cancer (SK-OV-3) (SKOV-3, MTT, read-out: IC50); below 4.00 in the assay on prostate cancer (PC-3) (PC-3, MTT, read-out: IC50). Also, the pIC50 with squamous cancer (A431) (A431, MTT, read-out: IC50) is 5.14; in assay [8] it was 4.92 to 5.89. Besides, the “sensitivity of PC-3 (in words)” value in the assay on prostate cancer (PC-3) is recorded as “insensitive”. In addition, the “antiproliferative / anticancer activity (in words)” value in assay [8] is “highest potency; also recorded: promising anticancer activities”.

As to `C/C(=C\c1csc(C)n1)[C@@H]1C[C@@H]2O[C@]2(C)CCC[C@H](C)[C@H](O)[C@@H](C)C(=O)C(C)(C)[C@@H](O)CC(=O)O1` [Epothilone B, reference compound], the negative-log IC50 (pIC50) in the assay with breast cancer (MCF-7) was 10.15; in the assay with lung cancer (A549) (A549), 10.30; with ovary cancer (SK-OV-3), 10.05; with prostate cancer (PC-3), 10.05; in the assay on squamous cancer (A431), 10.22.

On to `NC[C@H]1O[C@H](O[C@H]2[C@H](O)[C@@H](O[C@H]3O[C@H](CO)[C@@H](O)[C@H](N)[C@H]3O)[C@H](N)C[C@@H]2N)[C@H](O)[C@@H](O)[C@@H]1O` [Kanamycin, reference compound], for which the MIC in assay [2] (setting [15]) is 1.7^ K µg/ml.

Turning to `C[C@@H]1[C@H](O)[C@@H](C)/C=C/C=C/CC/C=C/C=C/C=C/C=C/C(O[C@H]2O[C@H](C)[C@@H](O)[C@H](N)[C@@H]2O)CC2O[C@](O)(CC(O)C(O)CCC(O)CC(O)CC(O)CC(=O)O[C@H]1C)CC(O)C2C(=O)O` (stereo partly shown) [Nystatin, reference compound], the MIC in assay [4] (setting [15]), in [5] (setting [15]) and in assay [6] (setting [15]) was 2.1^N µg/ml in each case.

In turn, `CN(C)[C@@H]1C(O)=C(C(N)=O)C(=O)[C@@]2(O)C(O)=C3C(=O)c4c(O)cccc4[C@@](C)(O)[C@H]3[C@H](O)[C@@H]12` [Oxytetracycline, reference compound] came in with an MIC in assay [3] of 16.6 µg/mL (≈ 36.1 µM).

Regarding Gentamycin [reference compound], the MIC in assay [1] (setting [15]) is given as 0.21^G µg/ml.

The values above are taken from article PMC10901772, “Cytotoxic naphtho- and benzofurans from an endophytic fungus Epicoccum nigrum Ann-B-2 associated with Annona squamosa fruits” (Scientific Reports, 2024).
